Earlier results, collected in patent US20210274780A1, “Disinfectant Composition Against the Novel Wuhan Corona Virus COVID-19” (priority 2020, published 2021).

## [H]/N=C(\N/C(=N/[H])NCCCCCCNC(=N)NC(=N)Nc1ccc(Cl)cc1)Nc1ccc(Cl)cc1 [Chlorhexidine]
adenoviruses
  effectiveness against adenoviruses: ineffective
Gram-positive bacteria
  effective concentration: ≥ 1 µg/L
polioviruses
  effectiveness against polioviruses: ineffective
